{"source": "ChEMBL document CHEMBL6182949", "about": "(J Med Chem, 2025)", "key": {"[1]": {"molecular_target": "T1, Protein cereblon/Interleukin-1 receptor-associated kinase 4 (Mus musculus) (UniProt Q8C7D2+Q8R4K2)", "T1 sequence (Q8C7D2 whole entry, looked up)": "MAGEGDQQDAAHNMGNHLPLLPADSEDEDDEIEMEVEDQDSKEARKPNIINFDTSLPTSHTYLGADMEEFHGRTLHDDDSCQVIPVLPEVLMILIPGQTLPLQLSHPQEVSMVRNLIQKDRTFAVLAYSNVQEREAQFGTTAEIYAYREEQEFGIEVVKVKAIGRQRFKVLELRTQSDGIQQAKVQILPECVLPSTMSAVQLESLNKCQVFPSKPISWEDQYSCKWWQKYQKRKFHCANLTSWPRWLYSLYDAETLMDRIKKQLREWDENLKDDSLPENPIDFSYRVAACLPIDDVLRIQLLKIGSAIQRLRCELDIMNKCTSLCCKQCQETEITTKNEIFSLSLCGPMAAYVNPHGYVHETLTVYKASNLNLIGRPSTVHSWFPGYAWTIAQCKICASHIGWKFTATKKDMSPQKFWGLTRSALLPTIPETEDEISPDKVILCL", "T1 sequence (Q8R4K2 whole entry, looked up)": "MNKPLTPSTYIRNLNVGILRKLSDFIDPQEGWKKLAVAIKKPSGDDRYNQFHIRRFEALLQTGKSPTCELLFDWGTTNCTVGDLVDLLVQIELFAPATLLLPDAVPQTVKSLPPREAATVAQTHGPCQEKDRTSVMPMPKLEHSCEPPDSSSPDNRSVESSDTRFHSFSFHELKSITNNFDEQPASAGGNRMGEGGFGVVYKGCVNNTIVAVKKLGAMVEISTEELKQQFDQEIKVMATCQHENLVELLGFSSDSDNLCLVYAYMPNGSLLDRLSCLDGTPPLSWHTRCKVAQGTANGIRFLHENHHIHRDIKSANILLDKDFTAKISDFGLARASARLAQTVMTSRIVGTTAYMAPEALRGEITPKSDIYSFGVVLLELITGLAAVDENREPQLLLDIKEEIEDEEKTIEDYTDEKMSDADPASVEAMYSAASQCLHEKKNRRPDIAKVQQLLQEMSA", "assay": "In-vivo PROTAC activity at C57BL/6 mouse assessed as reduction in IRAK4 level in spleen at 100 mg/kg, po measured after 24 hrs by Western blot analysis", "assay_type": "functional, organism-based", "design": "scale not given: the % may be the effect or the level left"}, "[2]": {"assay": "Oral bioavailability in Sprague-Dawley rat at 10 mg/kg measured up to 24 hrs by LC-MS/MS analysis", "assay_type": "ADME, organism-based", "settings": "in vivo"}, "[3]": {"molecular_target": "T1, Protein cereblon/Interleukin-1 receptor-associated kinase 4 (Mus musculus)", "assay": "In-vivo PROTAC activity at C57BL/6 mouse assessed as reduction in IRAK4 level in spleen at 30 mg/kg, po measured after 24 hrs by Western blot analysis", "assay_type": "functional, organism-based", "design": "scale not given: the % may be the effect or the level left"}, "[4]": {"molecular_target": "CYP2C19 (Homo sapiens, UniProt P33261)", "sequence (P33261 whole entry)": "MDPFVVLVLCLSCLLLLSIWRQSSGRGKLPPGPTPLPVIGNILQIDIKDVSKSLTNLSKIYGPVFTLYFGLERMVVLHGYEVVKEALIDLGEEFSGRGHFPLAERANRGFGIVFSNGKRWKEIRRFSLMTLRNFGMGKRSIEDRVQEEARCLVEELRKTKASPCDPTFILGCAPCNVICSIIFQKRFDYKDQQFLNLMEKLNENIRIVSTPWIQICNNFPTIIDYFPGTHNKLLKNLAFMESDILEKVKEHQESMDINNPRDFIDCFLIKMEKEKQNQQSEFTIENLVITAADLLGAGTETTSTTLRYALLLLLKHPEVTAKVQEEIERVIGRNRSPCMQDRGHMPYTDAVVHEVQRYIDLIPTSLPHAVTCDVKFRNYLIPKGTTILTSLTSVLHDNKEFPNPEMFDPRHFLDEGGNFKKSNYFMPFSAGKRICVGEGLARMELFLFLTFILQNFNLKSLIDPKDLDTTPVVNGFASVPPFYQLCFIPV", "assay": "Inhibition of CYP2C19 in human liver microsome using (S)-mephenytoin as substrate at 10 uM preincubated for 5 mins followed by NADPH addition and measured after 30 mins by LC-MS/MS analysis relative to control", "assay_type": "ADME", "settings": "human liver microsomes, probe (S)-mephenytoin, time 35 min"}, "[5]": {"assay": "Plasma protein binding in human assessed as unbound fraction incubated for 2 hrs by rapid equilibrium dialysis", "assay_type": "ADME, cell-free"}, "[6]": {"assay": "Half life in cynomolgus monkey at 20 mg/kg, po measured up to 24 hrs by LC-MS/MS analysis", "assay_type": "ADME, organism-based, Macaca fascicularis", "settings": "in vivo"}, "[7]": {"assay": "Permeability across basolateral to apical side in human Caco-2 cells incubated for 120 mins by LC-MS/MS analysis", "assay_type": "ADME, cell-based", "settings": "read-out: permeability"}, "[8]": {"assay": "Metabolic stability in human liver microsome assessed as half life at 1 uM measured up to 60 mins in presence of NADPH by LC-MS/MS analysis", "assay_type": "ADME", "settings": "liver microsomes"}, "[9]": {"assay": "Kinetic solubility of compound in FaSSGF at […] incubated for 2 hr by LC-MS analysis", "assay_type": "physicochemical", "settings": "read-out: Kinetic_solubility"}, "[10]": {"assay": "Kinetic solubility of compound in FeSSIF at pH 5 incubated for 2 hr by LC-MS analysis", "assay_type": "physicochemical", "settings": "read-out: Kinetic_solubility"}, "[11]": {"assay": "Cmax in Sprague-Dawley rat at 10 mg/kg, po measured up to 24 hrs by LC-MS/MS analysis", "assay_type": "ADME, organism-based", "settings": "in vivo"}, "[12]": {"molecular_target": "T2, Protein cereblon/Interleukin-1 receptor-associated kinase 4 (Homo sapiens, UniProt Q9NWZ3+Q96SW2)", "assay": "PROTAC activity at CRBN/IRAK4 in human PBMC cells assessed as induction of IRAK4 degradation incubated for 24 hrs by HiBiT lytic reagent based analysis", "assay_type": "cell-based"}, "[13]": {"assay": "AUClast in cynomolgus monkey at 1 mg/kg, iv measured up to 24 hrs by LC-MS/MS analysis", "assay_type": "ADME, organism-based, Macaca fascicularis", "settings": "in vivo"}, "[14]": {"molecular_target": "hERG (KCNH2) (Homo sapiens, UniProt Q12809)", "sequence (Q12809 whole entry)": "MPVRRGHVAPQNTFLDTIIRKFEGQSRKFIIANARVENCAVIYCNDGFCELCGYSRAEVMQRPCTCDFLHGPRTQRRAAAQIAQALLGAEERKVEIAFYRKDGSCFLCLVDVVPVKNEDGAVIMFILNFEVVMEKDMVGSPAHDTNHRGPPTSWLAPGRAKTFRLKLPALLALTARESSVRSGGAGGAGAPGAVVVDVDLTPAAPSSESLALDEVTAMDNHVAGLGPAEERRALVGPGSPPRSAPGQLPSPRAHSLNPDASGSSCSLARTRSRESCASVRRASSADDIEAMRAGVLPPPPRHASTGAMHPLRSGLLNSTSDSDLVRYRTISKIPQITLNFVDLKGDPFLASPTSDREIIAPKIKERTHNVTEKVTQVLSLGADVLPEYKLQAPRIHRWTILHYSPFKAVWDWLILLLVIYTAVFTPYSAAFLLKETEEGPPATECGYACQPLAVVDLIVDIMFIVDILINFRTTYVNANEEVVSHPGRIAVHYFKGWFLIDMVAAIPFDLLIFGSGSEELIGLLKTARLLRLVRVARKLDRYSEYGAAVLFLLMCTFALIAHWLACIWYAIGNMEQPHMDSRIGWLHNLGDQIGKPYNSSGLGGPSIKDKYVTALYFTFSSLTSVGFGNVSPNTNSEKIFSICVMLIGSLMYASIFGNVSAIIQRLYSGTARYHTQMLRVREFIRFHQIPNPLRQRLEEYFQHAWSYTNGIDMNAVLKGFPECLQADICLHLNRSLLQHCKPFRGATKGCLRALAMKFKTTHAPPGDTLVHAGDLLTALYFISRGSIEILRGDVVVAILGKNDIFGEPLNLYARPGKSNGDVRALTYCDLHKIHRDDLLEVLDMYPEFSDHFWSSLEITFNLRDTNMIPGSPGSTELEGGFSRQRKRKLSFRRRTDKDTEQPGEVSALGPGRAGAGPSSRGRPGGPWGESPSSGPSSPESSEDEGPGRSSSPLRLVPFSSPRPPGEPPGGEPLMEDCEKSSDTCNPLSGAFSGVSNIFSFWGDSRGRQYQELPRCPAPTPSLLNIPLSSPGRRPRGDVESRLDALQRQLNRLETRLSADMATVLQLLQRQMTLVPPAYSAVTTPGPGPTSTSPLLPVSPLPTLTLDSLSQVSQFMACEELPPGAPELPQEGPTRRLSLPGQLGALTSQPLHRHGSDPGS", "assay": "Inhibition of hERG expressed in HEK293 cells at 3 uM by manual patch clamp assay relative to control", "assay_type": "toxicity, cell-based", "settings": "HEK293 cells expressing hERG"}, "[15]": {"molecular_target": "CYP2C9 (Homo sapiens, UniProt P11712)", "sequence (P11712 whole entry)": "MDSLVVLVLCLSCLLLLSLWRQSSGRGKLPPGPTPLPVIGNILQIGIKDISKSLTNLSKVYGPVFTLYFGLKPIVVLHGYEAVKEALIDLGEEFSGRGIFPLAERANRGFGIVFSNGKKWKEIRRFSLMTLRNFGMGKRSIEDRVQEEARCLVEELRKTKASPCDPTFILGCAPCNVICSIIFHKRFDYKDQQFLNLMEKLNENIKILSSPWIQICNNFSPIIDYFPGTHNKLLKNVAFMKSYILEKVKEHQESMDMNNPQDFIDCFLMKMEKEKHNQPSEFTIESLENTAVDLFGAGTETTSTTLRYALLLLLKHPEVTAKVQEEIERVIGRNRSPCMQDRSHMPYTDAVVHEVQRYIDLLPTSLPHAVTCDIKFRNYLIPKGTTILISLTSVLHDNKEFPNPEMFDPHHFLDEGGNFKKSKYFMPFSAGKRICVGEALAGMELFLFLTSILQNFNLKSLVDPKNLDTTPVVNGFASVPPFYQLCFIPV", "assay": "Inhibition of CYP2C9 in human liver microsome using diclofenac as substrate at 10 uM preincubated for 5 mins followed by NADPH addition and measured after 10 mins by LC-MS/MS analysis relative to control", "assay_type": "ADME", "settings": "human liver microsomes, probe diclofenac, time 15 min"}, "[16]": {"assay": "Half life in male C57BL/6 mouse at 10 mg/kg, po measured up to 24 hrs by LC-MS/MS analysis", "assay_type": "ADME, organism-based", "settings": "in vivo"}, "[17]": {"assay": "AUClast in Sprague-Dawley rat at 2 mg/kg, iv measured up to 24 hrs by LC-MS/MS analysis", "assay_type": "ADME, organism-based", "settings": "in vivo"}, "[18]": {"assay": "Half life in male C57BL/6 mouse at 2 mg/kg, iv measured up to 24 hrs by LC-MS/MS analysis", "assay_type": "ADME, organism-based", "settings": "in vivo"}, "[19]": {"assay": "Oral bioavailability in male C57BL/6 mouse at 10 mg/kg measured up to 24 hrs by LC-MS/MS analysis", "assay_type": "ADME, organism-based", "settings": "in vivo"}, "[20]": {"assay": "Tmax in male C57BL/6 mouse at 10 mg/kg, po measured up to 24 hrs by LC-MS/MS analysis", "assay_type": "ADME, organism-based", "settings": "in vivo"}, "[21]": {"assay": "Half life in Beagle dog at 2 mg/kg, iv measured up to 24 hrs by LC-MS/MS analysis", "assay_type": "ADME, organism-based, Canis lupus familiaris", "settings": "in vivo"}, "[22]": {"assay": "Oral bioavailability in cynomolgus monkey at 20 mg/kg measured up to 24 hrs by LC-MS/MS analysis", "assay_type": "ADME, organism-based, Macaca fascicularis", "settings": "in vivo"}, "[23]": {"assay": "Half life in Beagle dog at 10 mg/kg, po measured up to 24 hrs by LC-MS/MS analysis", "assay_type": "ADME, organism-based, Canis lupus familiaris", "settings": "in vivo"}, "[24]": {"assay": "Oral bioavailability in Beagle dog at 10 mg/kg measured up to 24 hrs by LC-MS/MS analysis", "assay_type": "ADME, organism-based, Canis lupus familiaris", "settings": "in vivo"}, "[25]": {"assay": "Metabolic stability in rat liver microsome assessed as half life at 1 uM measured up to 60 mins in presence of NADPH by LC-MS/MS analysis", "assay_type": "ADME", "settings": "liver microsomes"}, "[26]": {"test_system": "Mus musculus", "assay": "Anti-arthritic activity against collagen-induced arthritis DBA/1 mouse model assessed as improvement in delta paw volume at 30 mg/kg, po administered for 14 days […]", "assay_type": "functional, organism-based", "settings": "time 14.0 day"}, "[27]": {"assay": "Metabolic stability in dog liver microsome assessed as half life at 1 uM measured up to 60 mins in presence of NADPH by LC-MS/MS analysis", "assay_type": "ADME, Canis lupus familiaris", "settings": "liver microsomes"}, "[28]": {"assay": "Cmax in Beagle dog at 2 mg/kg, iv measured up to 24 hrs by LC-MS/MS analysis", "assay_type": "ADME, organism-based, Canis lupus familiaris", "settings": "in vivo"}, "[29]": {"molecular_target": "T2, Protein cereblon/Interleukin-1 receptor-associated kinase 4", "assay": "PROTAC activity at CRBN/IRAK4 in human THP-1 cells assessed as induction of IRAK4 degradation incubated for 24 hrs by HiBiT lytic reagent based analysis relative to control", "assay_type": "cell-based"}, "[30]": {"assay": "Efflux ratio of permeability across basolateral to apical over apical to basolateral side in human Caco-2 cells measured up to 120 mins by LC-MS/MS analysis", "assay_type": "ADME, cell-based"}, "[31]": {"assay": "Metabolic stability mouse hepatocyte assessed as half life at 1 uM measured up to 120 mins by LC-MS/MS analysis", "assay_type": "ADME, cell-based", "settings": "hepatocytes"}, "[32]": {"assay": "Volume of distribution at steady state in Beagle dog at 2 mg/kg, iv measured up to 24 hrs by LC-MS/MS analysis", "assay_type": "ADME, organism-based, Canis lupus familiaris", "settings": "in vivo"}, "[33]": {"assay": "Inhibition of LPS-stimulated IL-6 release in human PBMC cells", "assay_type": "functional, cell-based"}, "[34]": {"assay": "AUClast in male C57BL/6 mouse at 10 mg/kg, po measured up to 24 hrs by LC-MS/MS analysis", "assay_type": "ADME, organism-based", "settings": "in vivo"}, "[35]": {"assay": "AUClast in male C57BL/6 mouse at 2 mg/kg, iv measured up to 24 hrs by LC-MS/MS analysis", "assay_type": "ADME, organism-based", "settings": "in vivo"}, "[36]": {"test_system": "Mus musculus", "assay": "Anti-psoriasis effect in IMQ-induced C57BL/6 mouse assessed as reduction in erythema intensity administered topically twice daily for 6 days and measured after 24 hrs", "assay_type": "functional, organism-based", "settings": "dose 10-100 mg/kg, time 7.0 day"}, "[37]": {"test_system": "Mus musculus", "assay": "Anti-arthritic activity against collagen-induced arthritis DBA/1 mouse model assessed as improvement in delta paw volume at 100 mg/kg, po administered for 14 days […]", "assay_type": "functional, organism-based", "settings": "time 14.0 day"}, "[38]": {"molecular_target": "T2, Protein cereblon/Interleukin-1 receptor-associated kinase 4", "assay": "PROTAC activity at CRBN/IRAK4 in human THP-1 cells assessed as induction of IRAK4 degradation incubated for 24 hrs by HiBiT lytic reagent based analysis", "assay_type": "cell-based"}, "[39]": {"assay": "Metabolic stability monkey hepatocyte assessed as half life at 1 uM measured up to 120 mins by LC-MS/MS analysis", "assay_type": "ADME, cell-based, Macaca mulatta", "settings": "rhesus monkey, hepatocytes"}}, "note": "Active and inactive are the calls of the source. The rule behind the calls is not given here.", "data": [{"smiles": "Cn1c(=O)n(C2CCC(=O)NC2=O)c2cccc(C#CCO[C@H]3CC[C@H](CN4CCC5(CC4)Cc4cc(NC(=O)c6coc7cccnc67)c(N6CCC(CO)CC6)cc4O5)CC3)c21", "note": "(some centres undefined)", "values": [{"measurement": "Activity", "setting": "[1]", "value": "> 80", "unit": "%"}, {"measurement": "F", "setting": "[2]", "value": 18, "unit": "%"}, {"measurement": "Activity", "setting": "[3]", "value": "> 80", "unit": "%"}, {"measurement": "inhibition at 0.5 h, 10 µM", "setting": "[4]", "value": 45.1, "unit": "%"}, {"measurement": "Fu", "setting": "[5]", "value": "< 0.08", "unit": "%"}, {"measurement": "half-life", "setting": "[6]", "value": 9.07, "unit": "h"}, {"measurement": "Papp B→A at 2 h", "setting": "[7]", "value": 0.2, "unit": "×10⁻⁶ cm/s"}, {"measurement": "half-life at 1 µM", "setting": "[8]", "value": "> 3.07", "unit": "h"}, {"measurement": "solubility kinetic at 2 h", "setting": "[9]", "value": 252, "unit": "µg/mL"}, {"measurement": "solubility kinetic at 2 h", "setting": "[10]", "value": 7.78, "unit": "µg/mL"}, {"measurement": "Cmax", "setting": "[11]", "value": 613, "unit": "ng/mL"}, {"measurement": "DC50", "setting": "[12]", "value": 0.43, "unit": "nM"}, {"measurement": "AUC(0-t) at 24 h", "setting": "[13]", "value": 1820, "unit": "ng·h/mL"}, {"measurement": "inhibition at 3 µM", "setting": "[14]", "value": 53, "unit": "%"}, {"measurement": "inhibition at 10 min, 10 µM", "setting": "[15]", "value": 13.9, "unit": "%"}, {"measurement": "half-life", "setting": "[16]", "value": 4.34, "unit": "h"}, {"measurement": "AUClast", "setting": "[17]", "value": 25.89, "unit": "ng·h/mL"}, {"measurement": "half-life", "setting": "[18]", "value": 3.12, "unit": "h"}, {"measurement": "bioavailability", "setting": "[19]", "value": 45, "unit": "%"}, {"measurement": "Tmax", "setting": "[20]", "value": 2.67, "unit": "h"}, {"measurement": "t1/2", "setting": "[21]", "value": 8.1, "unit": "h"}, {"measurement": "bioavailability", "setting": "[22]", "value": 11, "unit": "%"}, {"measurement": "half-life", "setting": "[23]", "value": 10.6, "unit": "h"}, {"measurement": "bioavailability", "setting": "[24]", "value": 39, "unit": "%"}, {"measurement": "half-life at 1 µM", "setting": "[25]", "value": "> 3.07", "unit": "h"}, {"measurement": "Activity", "setting": "[26]", "value": "Active"}, {"measurement": "half-life at 1 µM", "setting": "[27]", "value": "> 3.07", "unit": "h"}, {"measurement": "Cmax", "setting": "[28]", "value": 599, "unit": "ng/mL"}, {"measurement": "Emax", "setting": "[29]", "value": 94, "unit": "%"}, {"measurement": "efflux ratio at 2 h", "setting": "[30]", "value": 2.22}, {"measurement": "half-life at 1 µM", "setting": "[31]", "value": 3.42, "unit": "h"}, {"measurement": "Vdss", "setting": "[32]", "value": 73, "unit": "L/kg"}, {"measurement": "IC50", "setting": "[33]", "value": 16.4, "unit": "nM"}, {"measurement": "AUC(0-t) at 24 h", "setting": "[34]", "value": 23400, "unit": "ng·h/mL"}, {"measurement": "AUC(0-t) at 24 h", "setting": "[35]", "value": 10600, "unit": "ng·h/mL"}, {"measurement": "Activity", "setting": "[36]", "value": "Dose-dependent-effect"}, {"measurement": "Activity", "setting": "[37]", "value": "Active"}, {"measurement": "DC50", "setting": "[38]", "value": 4.01, "unit": "nM"}, {"measurement": "half-life at 1 µM", "setting": "[39]", "value": "> 6.18", "unit": "h"}]}]}
